# From article PMC8607231, “Generation of KS-133 as a Novel Bicyclic Peptide with a Potent and Selective VIPR2 Antagonist Activity that Counteracts Cognitive Decline in a Mouse Model of Psychiatric Disorders” (Frontiers in Pharmacology, 2021)
# Where a SMILES comes first, the peptide text is derived from it. Bridges are numbered along the chain shown (N, C = ends).
# System: VIPR2 activation-induced phosphorylation of CREB
# Experiment: Western blot of pCREB in prefrontal cortex of adult mice after i.n. injection
# Type: in vivo
# Conditions: mice at 8 weeks, KS-133 20 nmol/mouse i.n. with BAY 55-9837 20 µg/mouse, 45 min after injection
# Method: For western blot analysis, ICR neonatal mice at P12 (7–10 g body weight) were subcutaneously (s.c.) injected with KS-133 (1 nmol/g) and Ro 25-1553 (0.4 nmol/g, Peptide Institute, Inc. Osaka, Japan), a selective VIPR2 agonist ([Gourlet et al., 1997]; [Harmar et al., 2012]), and adult C57BL/6J mice at 8 weeks of age (20–30 g body weight) were intranasally (i.n.) injected with KS-133 (20 nmol/mouse) and BAY 55-9837 (20 µg/mouse, Tocris Bioscience, Bristol, United Kingdom), another selective VIPR2 agonist ([Tsutsumi et al., 2002]; [Tian et al., 2019]). The dosages of these drugs were determined in a preliminary experiment using the change in phosphorylation of cAMP-response element-binding protein (CREB) as an index. Ro 25-1553 was dissolved in phosphate-buffered saline (PBS) and BAY 55-9837 was dissolved in distilled water. KS-133 was dissolved in saline with 1% dimethyl sulfoxide (DMSO; #13445-74, Nacalai Tesque, Inc., Kyoto, Japan) for s.c. injection or saline with 5% DMSO and 5 mg/ml poly-L-arginine (#P7762, Sigma-Aldrich, St. Louis, MO, United States) for i.n. injection. […]
# FIGURE 4 Effects of subcutaneous (A) and intranasal (B) administration of KS-133 on VIPR2 activation-induced phosphorylation of CREB in the prefrontal cortex of mice. Phospho-CREB (pCREB), total CREB, and β-actin levels were analyzed by western blotting. […]
structure (smiles),measurement,value
"CC[C@H](C)[C@H](NC(=O)[C@H](CC(C)C)NC(=O)[C@@H]1CC(=O)NCCCC[C@@H]2NC(=O)[C@@H]3CCCN3C(=O)[C@H](CC(C)C)NC(=O)[C@H](Cc3ccc(O)cc3)NC(=O)[C@@H]3CCCN3C(=O)[C@@H]3CCCN3C(=O)[C@@H](NC(C)=O)CSSC[C@H](NC(=O)[C@H](CC(C)C)NC(=O)[C@H](Cc3ccc(O)cc3)NC2=O)C(=O)N1)C(N)=O [KS-133, Ac-c[Cys-Pro-Pro-Tyr-Leu-Pro-c(Lys-Tyr-Leu-Cys]-Asp)-Leu-Ile-NH2] (Ac-CPPYLPKYLCDLI-NH2; disulfide 1-10; lactam 7-11)",Effect on BAY 55-9837-induced increase in phosphorylated CREB,blocked
